These results are taken from US20260356804A1, “SODIUM CHANNEL BLOCKING COMPOUNDS, DERIVATIVES THEREOF, AND METHODS OF THEIR USE” (LATIGO BIOTHERAPEUTICS, INC., priority 2022, published 2026).

Like-named read-outs stand apart in the source and are kept apart here.

The target in the assay is T1, human Nav1.8/b3 (Homo sapiens, UniProt Q9Y5Y9).
T1 construct: expressed in transfected cells; host or cells: CHO
Put plainly: Compound Profiling Human NaV1.8/β3 Cell Line—SyncroPatch384PE Assay (automated patch clamp, stably transfected CHO cells). The class given is cell-based. Particulars: Nav1.8/b3 CHO cells.

Where [1] appears, read: P1 measurement, resting state block, holding potential −120 mV, third set of compounds, read-out: P1 (IC50, resting state block).
The mark [2] stands for this setting: P2 measurement, inactivated state block, inactivation step −35 mV 10 sec, third set of compounds, read-out: P2 (IC50, inactivated state block).
Where [3] appears, read: P1 (IC50, resting state block), P1 measurement, resting state block, holding potential −120 mV, third set of compounds.
Where [4] appears, read: P2 (IC50, inactivated state block), P2 measurement, inactivated state block, inactivation step −35 mV 10 sec, third set of compounds.
Setting [5] is: P1 (IC50, resting state block), P1 measurement, resting state block, holding potential −120 mV, first set of compounds.
Setting [6] is: P2 (IC50, inactivated state block), P2 measurement, inactivated state block, inactivation step −35 mV 10 sec, first set of compounds.
Setting [7] is: P1 (IC50, resting state block), P1 measurement, resting state block, holding potential −120 mV, second set of compounds.
[8] abbreviates: P2 (IC50, inactivated state block), P2 measurement, inactivated state block, inactivation step −35 mV 10 sec, second set of compounds.

What is called IC50 is the concentration that inhibits the measured activity by half.

T1 sequence (Q9Y5Y9 whole entry): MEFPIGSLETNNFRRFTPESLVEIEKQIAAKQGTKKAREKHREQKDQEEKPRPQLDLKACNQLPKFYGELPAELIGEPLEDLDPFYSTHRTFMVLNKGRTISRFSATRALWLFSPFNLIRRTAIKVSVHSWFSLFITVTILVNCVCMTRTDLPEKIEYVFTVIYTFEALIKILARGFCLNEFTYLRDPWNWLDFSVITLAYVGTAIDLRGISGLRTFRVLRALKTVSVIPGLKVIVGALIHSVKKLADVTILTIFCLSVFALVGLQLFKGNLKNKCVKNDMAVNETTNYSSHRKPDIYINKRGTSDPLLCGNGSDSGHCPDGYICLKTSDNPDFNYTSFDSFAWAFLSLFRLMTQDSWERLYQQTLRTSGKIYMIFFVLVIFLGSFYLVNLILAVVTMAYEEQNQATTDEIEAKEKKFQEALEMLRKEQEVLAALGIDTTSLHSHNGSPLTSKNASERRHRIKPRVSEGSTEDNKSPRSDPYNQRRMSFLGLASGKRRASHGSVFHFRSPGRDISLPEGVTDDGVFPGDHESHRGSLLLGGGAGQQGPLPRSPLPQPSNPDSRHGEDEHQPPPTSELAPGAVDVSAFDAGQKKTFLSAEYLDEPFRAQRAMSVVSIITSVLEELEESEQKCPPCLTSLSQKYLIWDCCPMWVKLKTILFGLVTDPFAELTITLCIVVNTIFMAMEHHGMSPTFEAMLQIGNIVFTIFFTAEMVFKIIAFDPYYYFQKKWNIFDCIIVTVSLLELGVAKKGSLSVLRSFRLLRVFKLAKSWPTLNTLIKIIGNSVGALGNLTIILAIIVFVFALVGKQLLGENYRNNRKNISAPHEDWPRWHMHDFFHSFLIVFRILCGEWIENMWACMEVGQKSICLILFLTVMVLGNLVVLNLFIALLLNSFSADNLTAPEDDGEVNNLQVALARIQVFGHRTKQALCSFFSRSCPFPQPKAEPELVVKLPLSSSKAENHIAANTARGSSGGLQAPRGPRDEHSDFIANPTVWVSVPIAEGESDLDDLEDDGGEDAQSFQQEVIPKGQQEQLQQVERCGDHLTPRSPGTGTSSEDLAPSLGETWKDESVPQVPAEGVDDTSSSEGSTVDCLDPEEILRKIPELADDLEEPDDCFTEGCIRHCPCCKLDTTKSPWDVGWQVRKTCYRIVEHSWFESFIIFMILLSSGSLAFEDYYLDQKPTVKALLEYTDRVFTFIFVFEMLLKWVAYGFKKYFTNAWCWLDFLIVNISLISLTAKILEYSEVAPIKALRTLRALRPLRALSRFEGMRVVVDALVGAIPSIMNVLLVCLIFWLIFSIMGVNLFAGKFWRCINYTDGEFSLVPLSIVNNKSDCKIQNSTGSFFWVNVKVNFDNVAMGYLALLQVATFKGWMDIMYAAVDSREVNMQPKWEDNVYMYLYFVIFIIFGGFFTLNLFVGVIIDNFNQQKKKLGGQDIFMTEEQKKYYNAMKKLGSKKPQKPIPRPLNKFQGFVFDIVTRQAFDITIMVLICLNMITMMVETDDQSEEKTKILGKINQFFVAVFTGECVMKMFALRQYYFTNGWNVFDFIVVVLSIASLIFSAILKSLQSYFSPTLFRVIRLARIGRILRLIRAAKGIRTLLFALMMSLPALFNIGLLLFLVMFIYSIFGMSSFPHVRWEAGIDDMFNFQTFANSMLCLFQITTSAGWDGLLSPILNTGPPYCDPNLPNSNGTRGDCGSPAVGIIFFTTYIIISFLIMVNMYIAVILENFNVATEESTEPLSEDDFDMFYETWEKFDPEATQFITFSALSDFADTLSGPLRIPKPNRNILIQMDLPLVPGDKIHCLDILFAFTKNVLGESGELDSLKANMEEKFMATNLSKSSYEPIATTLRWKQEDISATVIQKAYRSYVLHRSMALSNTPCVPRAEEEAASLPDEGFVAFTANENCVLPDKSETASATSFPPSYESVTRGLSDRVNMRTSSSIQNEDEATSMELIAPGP
T1 sequence (Q9NY72 23-215 partner): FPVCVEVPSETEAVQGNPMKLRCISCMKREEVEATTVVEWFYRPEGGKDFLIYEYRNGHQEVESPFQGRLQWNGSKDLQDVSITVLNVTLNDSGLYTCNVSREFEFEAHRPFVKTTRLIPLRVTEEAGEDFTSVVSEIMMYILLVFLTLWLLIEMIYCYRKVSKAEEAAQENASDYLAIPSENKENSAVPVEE

Regarding `[2H]C([2H])([2H])c1nc(F)ccc1Oc1cc(C(F)(F)F)c(Cl)cc1C(=O)Nc1ccnc([S@](C)(=N)=O)c1` [Example 13A, (R)-5-chloro-2-((6-fluoro-2-(methyl-d3)pyridin-3-yl)oxy)-N-(2-(S-methylsulfonimidoyl)pyridin-4-yl)-4-(trifluoromethyl)benzamide], the IC50 by setting is: (P1 measurement, resting state block, holding potential −120 mV, first set of compounds, read-out: P1 (IC50, resting state block)) under 5 nM; (P2 measurement, inactivated state block, inactivation step −35 mV 10 sec, first set of compounds, read-out: P2 (IC50, inactivated state block)) under 5 nM.
For `Cc1nc(F)ccc1Oc1c(C2CC2)ncc(F)c1C(=O)Nc1cccc([S@](C)(=N)=O)c1` [Example 37C, (R)-2-cyclopropyl-5-fluoro-3-((6-fluoro-2-methylpyridin-3-yl)oxy)-N-(3-(S-methylsulfonimidoyl)phenyl)isonicotinamide], the IC50 is, setting by setting: under setting [1], over 200 nM; under setting [2], over 200 nM.
Consider `Cc1nc(F)ccc1Oc1nnc(C(F)(F)F)c(C)c1C(=O)Nc1cccc([S@](C)(=N)=O)c1` [Example 9C, (R)-3-((6-fluoro-2-methylpyridin-3-yl)oxy)-5-methyl-N-(3-(S-methylsulfonimidoyl)phenyl)-6-(trifluoromethyl)pyridazine-4-carboxamide], for which the IC50 runs as follows: under setting [3], 50 to 100 nM; under setting [4], 50 to 100 nM.
For the compound `Cc1nc(F)ccc1Oc1cc(C(F)(F)F)c(Cl)cc1C(=O)Nc1ccc(F)c([S@@+](C)[O-])c1` [Example 56A], the IC50 was under 5 nM under setting [5] and under 5 nM under setting [6].
As for `Cc1nc(F)ccc1Oc1ncc(C(F)(F)F)c(C)c1C(=O)Nc1ccc(C(N)=O)nc1` [Example 111C], the IC50 reads like this: under setting [3], over 200 nM; under setting [4], over 200 nM.
In the case of `Cc1nc(F)ccc1Oc1ccc(C(F)(F)F)c(F)c1C(=O)Nc1cccc([S@@](C)(=O)=NC(=O)[C@@H]2CCCN2)c1` [Example 21B, (S)—N—((R)-(3-(2-fluoro-6-((6-fluoro-2-methylpyridin-3-yl)oxy)-3-(trifluoromethyl)benzamido)phenyl)(methyl)(oxo)-λ^6-sulfaneylidene)pyrrolidine-2-carboxamide], the IC50 reads like this: under setting [7], 5 to 50 nM; under setting [8], 5 to 50 nM.
Consider `Cc1nc(F)ccc1Oc1cnc(C(F)(F)F)c(C)c1C(=O)Nc1cccc([S@](C)(=N)=O)c1` [Example 44C, (R)-5-((6-fluoro-2-methylpyridin-3-yl)oxy)-3-methyl-N-(3-(S-methylsulfonimidoyl)phenyl)-2-(trifluoromethyl)isonicotinamide], for which the IC50 under setting [1] is 5 to 50 nM and the IC50 under setting [2] lay within 5 to 50 nM.
`Cc1nc(F)ccc1Oc1nc(C(F)(F)F)c(Cl)c(C)c1C(=O)Nc1ccc(F)c([S@](C)(=N)=O)c1` [Example 95C]: the IC50 reads like this: under setting [3], under 5 nM; under setting [4], under 5 nM.
As for `Cc1nc(F)ccc1Oc1ncc(C(F)(F)F)c(C)c1C(=O)Nc1cccc([S@@](C)(=O)=NC(=O)[C@H]2CCOC2)c1` [Example 15D, 2-((6-fluoro-2-methylpyridin-3-yl)oxy)-4-methyl-N-(3-((R)—S-methyl-N—((S)-tetrahydrofuran-3-carbonyl)sulfonimidoyl)phenyl)-5-(trifluoromethyl)nicotinamide], the IC50 was under 5 nM (P1 (IC50, resting state block), P1 measurement, resting state block, holding potential −120 mV, fourth set of compounds) and under 5 nM (P2 (IC50, inactivated state block), P2 measurement, inactivated state block, inactivation step −35 mV 10 sec, fourth set of compounds).
On to `Cc1nc(F)ccc1Oc1ccc(-c2cnn(C)c2)c(C)c1C(=O)Nc1cccc([S@](C)(=N)=O)c1` [Example 7A, (R)-6-((6-fluoro-2-methylpyridin-3-yl)oxy)-2-methyl-3-(1-methyl-1H-pyrazol-4-yl)-N-(3-(S-methylsulfonimidoyl)phenyl)benzamide], for which the IC50 is over 200 nM under setting [5] and over 200 nM under setting [6].
As to `Cc1nc(F)ccc1Oc1cc(C(F)(F)F)c(Cl)cc1C(=O)Nc1ccc([S@@](C)(=N)=O)cc1` [Example 48A], the IC50 runs as follows: under setting [5], 50 to 100 nM; under setting [6], 50 to 100 nM.
With `Cc1nc(F)ccc1Oc1ccc(C(F)(F)F)c(F)c1C(=O)Nc1cccc([S@@](C)(=O)=NC(=O)[C@@H](C)N)c1` [Example 15B, N-(3-((R)—N-(D-alanyl)-S-methylsulfonimidoyl)phenyl)-2-fluoro-6-((6-fluoro-2-methylpyridin-3-yl)oxy)-3-(trifluoromethyl)benzamide], the IC50 under setting [7] is under 5 nM and the IC50 under setting [8] was under 5 nM.
Regarding `Cc1nc(F)ccc1Oc1cc(C(F)(F)F)c(Cl)cc1C(=O)NC12CC(C(N)=O)(C1)C2` [Example 63A], the IC50 is over 200 nM under setting [5] and over 200 nM under setting [6].
Regarding `Cc1nc(F)ccc1Oc1cc(C(F)(F)F)ccc1C(=O)Nc1cccc([S@](C)(=N)=O)c1` [Example 2A, (R)-2-((6-fluoro-2-methylpyridin-3-yl)oxy)-N-(3-(S-methylsulfonimidoyl)phenyl)-4-(trifluoromethyl)benzamide], the IC50 lay within 5 to 50 nM under setting [5] and 5 to 50 nM under setting [6].
